According to ChEMBL document CHEMBL4152375, “Compromising the plasma membrane as a secondary target in photodynamic therapy-induced necrosis” (Bioorg Med Chem, 2018):
Activity calls are given as the source filed them. The calls are words filed in the database; no cut-off is given here.

What was measured:
[1] = Dark toxicity in CHO cells at 1 uM incubated for overnight followed by compound washout by fluorescence microscopic analysis; assay type: cell-based, Cricetulus griseus; conditions: chinese hamster
[2] = Drug uptake in endosome of CHO cells at 1 uM incubated for overnight followed by compound washout measured by fluorescence microscopic analysis; assay type: ADME, subcellular, Cricetulus griseus; conditions: chinese hamster
[3] = test system: CHO; test: Induction of plasma membrane-mediated necrosis in EthD1-labelled CHO cells assessed as swelling of nuclei at 1 uM incubated for overnight followed by compound washout and subsequent 150W irradiation for 30 secs by fluorescence microscopic analysis; assay type: functional, cell-based; conditions: Cricetulus griseus
[4] = Drug uptake in endosome of fluorescein-dextran-labelled CHO cells at 1 uM incubated for overnight followed by compound washout measured by fluorescence microscopic analysis; assay type: ADME, subcellular, Cricetulus griseus; conditions: chinese hamster
[5] = test system: CHO; test: Induction of plasma membrane-mediated necrosis in EthD1-labelled CHO cells at 1 uM incubated for two hrs at 4 degC followed by compound washout and subsequent 150W irradiation for 30 secs by fluorescence microscopic analysis; assay type: functional, cell-based; conditions: Cricetulus griseus
[6] = test system: CHO; test: Induction of plasma membrane-mediated necrosis in CHO cells assessed as swelling of nuclei at 1 uM incubated for overnight followed by compound washout and subsequent 150W irradiation for 30 secs by fluorescence microscopic analysis; assay type: functional, cell-based; conditions: Cricetulus griseus
[7] = test system: CHO; test: Induction of plasma membrane-mediated necrosis in CHO cells at 1 uM incubated for overnight followed by compound washout with PBS 5% FBS and subsequent 150W irradiation for 30 secs by fluorescence microscopic analysis; assay type: functional, cell-based; conditions: Cricetulus griseus
[8] = Drug uptake in lysosome of fluorescein-dextran-labelled CHO cells at 1 uM incubated for overnight followed by compound washout measured by fluorescence microscopic analysis; assay type: ADME, subcellular, Cricetulus griseus; conditions: chinese hamster

For CN1CC2c3nc(c(-c4c(F)c(F)c(S[C@@H]5O[C@H](CO)[C@@H](O)[C@H](O)[C@H]5O)c(F)c4F)c4ccc([nH]4)c(-c4c(F)c(F)c(S[C@@H]5O[C@H](CO)[C@@H](O)[C@H](O)[C@H]5O)c(F)c4F)c4nc(c(-c5c(F)c(F)c(S[C@@H]6O[C@H](CO)[C@@H](O)[C@H](O)[C@H]6O)c(F)c5F)c5ccc([nH]5)c3-c3c(F)c(F)c(S[C@@H]5O[C@H](CO)[C@@H](O)[C@H](O)[C@H]5O)c(F)c3F)C=C4)C2C1 (stereo partly drawn), the Activity [1] was “Non-Toxic”, the Drug uptake [2] was “Active” and the Activity [3] was “Active”. The Drug uptake [4] was “Active”, the Activity [5] was “Active” and the Activity [6] was “Active”. For the same compound, the Activity [7] was “inactive” and the Drug uptake [8] was “Active”.
